According to US11786542B2, “Methods for enhancing cytotoxic cancer therapy through modulation of purine biosynthesis pathways” (NORTHWESTERN UNIVERSITY, priority 2019, dated 2023):
“Also recorded” adds a separate entry of the source.

Legend:
[1] = tested on: de novo pathway; test: [14C]-glycine isotope tracing, de novo purine biosynthesis; assay type: cell-based; conditions: for de novo pathway activity during TMZ therapy: cells with endogenous ARL13B
Procedure: (§1) FIG. 4A-4E. IMPDH2-ARL13B interaction during TMZ therapy influences purine biosynthesis. A) Schematic diagram of purine biosynthesis. Isotope tracing analysis performed with ^14C glycine for de novo and ^3H hypoxanthine for salvage pathway. […] D)^14C glycine incorporation via de novo synthesis of the DNA and RNA with or without TMZ therapy in the presence and absence of ARL13B. U251 GBM cells were pulsed for 6 h with ^14C glycine, DNA and RNA were isolated, and ^14C incorporation was measured by […]. E) ^3H hypoxanthine incorporation via salvage pathway.
2.5. The ARL13B-IMPDH2 interaction during TMZ therapy alters the path to purine biosynthesis: IMPDH controls the gateway to purine nucleotides, by analyzing the rate-limiting reaction of de novo GTP biosynthesis at the inosine monophosphate (IMP) metabolic branch point^36 (FIG. 4A). This critical reaction appears to be present in every organism. Alternatively, purine bases, released by hydrolytic degradation of nucleic acids and nucleotides, can be salvaged and recycled. This is an energy-saving pathway for purine biosynthesis, and its inefficiency can result in many pathological conditions including Lesch-Nyhan syndrome^37. In cancer, rapid cell division results in a high demand for purine nucleotides that generally cannot be sustained by salvage pathways, which may explain the importance of IMPDH in cancer^14, 38. This information, combined with our finding of a direct interaction between ARL13B and IMPDH2 during TMZ therapy, allows us to postulate that such an interaction may be playing a role in regulation of purine biosynthesis pathway. To investigate further, we first performed [^14C]-glycine (de novo) and [^3H]-hypoxanthine (salvage) pulse-chase study during therapy, which allowed us to measure the activity of specific purine biosynthesis pathways^39 (FIG. 4A). […] Moreover, removal or ARL13B enhanced the salvage activity about 5-fold (FIG. 4E, p<0.0005). Based on this, we conclude that ARL13B may act as a negative regulator for the salvage pathway and is play a role in therapy-induced switch of the purine biosynthesis.

[2] = tested on: ARL13B knockdown PDX GBM (GBM5, GBM6); test: Intracranial ARL13B knockdown PDX xenografts treated with TMZ, endpoint survival; assay type: in vivo, nu/nu mice; conditions: TMZ 2.5 mg/kg for 5 days
Procedure: (§2) FIG. 5A-5D. Removal of ARL13B sensitizes GBM to TMZ therapy. […] B) Quantitative measure of H2X foci of different conditions counted in 100 cells. C) and D) shRNA mediated knockdown of ARL13B PDX lines were implanted in the nu/nu mice intracranially. After tumor establishment (7 days post implantation measured by BLI) animals were treated with suboptimal dose of TMZ (2.5 mg/kg) for 5 consecutive days. Animals were monitored for endpoint survival. C) GBMS PDX which is a mesenchymal subtype and D) GBM6, a classical subtype.
2.6. ARL13B KD enhances the therapeutic efficacy of TMZ both in vitro and in vivo: The monofunctional DNA-alkylating agent TMZ is a commonly used chemotherapeutic drug and the gold standard of treatment for GBM. Although the activity of the DNA repair enzyme O6-methylguanine-DNA methyltransferase (MGMT) has been identified as the critical modulator to determine the GBM sensitivity to TMZ, all GBMs, even those with MGMT inactivation, eventually stop responding to TMZ. This begs question whether an alternative mechanism of resistance may be involved in GBM. The anti-GBM activity of TMZ is predominately provoked by O6-methylguanine-DNA adducts. […] After tumor engraftment animals were treated with vehicle control or TMZ (2.5 mg/kg) for 5 consecutive days and animals were monitored by endpoint survival. […]

[3] = tested on: salvage pathway; test: [3H]-hypoxanthine isotope tracing, salvage purine biosynthesis; assay type: cell-based; conditions: cells with endogenous ARL13B; listed as temozolomide
Procedure: as §1
2.5. The ARL13B-IMPDH2 interaction during TMZ therapy alters the path to purine biosynthesis: IMPDH controls the gateway to purine nucleotides, by analyzing the rate-limiting reaction of de novo GTP biosynthesis at the inosine monophosphate (IMP) metabolic branch point^36 (FIG. 4A). This critical reaction appears to be present in every organism. Alternatively, purine bases, released by hydrolytic degradation of nucleic acids and nucleotides, can be salvaged and recycled. This is an energy-saving pathway for purine biosynthesis, and its inefficiency can result in many pathological conditions including Lesch-Nyhan syndrome^37. In cancer, rapid cell division results in a high demand for purine nucleotides that generally cannot be sustained by salvage pathways, which may explain the importance of IMPDH in cancer^14, 38. […]

[4] = patients; cited from earlier work
[5] = tested on: IMPDH2; test: IMPDH2 enzymatic activity, formazin reduction assay; assay type: biochemical; conditions: over 8 days of TMZ exposure (p<0.001)
From the text: (§3) Glioblastoma, a universally lethal primary brain tumor, harnesses cellular plasticity to drive therapeutic adaptation. Critical factors in developing this plasticity are histone modifiers such as Polycomb Repressor Complex 2 protein EZH2. […] Concurrently, we observed an increase in H3K27ac at the transcription start site of ARL13B as well as a lack of H3K27 tri-methylation, EZH2's canonical histone mark. Based on this we hypothesize that EZH2 could be non-canonically regulating ARL13B to allow for cellular plasticity and ultimately drive therapeutic adaptation. […] Searching for a mechanism behind this survival benefit, we preformed mass spectrometry on an ARL13B pulldown in a patient derived xenograft line during TMZ therapy and identified inosine monophosphate dehydrogenase 2 (IMPDH2), the rate-limiting enzyme in de-novo guanine nucleotide biosynthesis, as a significant binding partner of ARL13B during TMZ chemotherapy (p-value<0.0001). Probing this novel interaction further we examined the de-novo and salvage purine biosynthesis pathways using radiolabeled carbon tracing experiments. […] This synthesis shift forces cells to uptake and incorporate purines that have been alkylated by TMZ therapy which increases DNA double strand breaks and ultimately impairs therapeutic adaptation.

[6] = tested on: Glioblastoma (GBM); conditions: combined with radiotherapy after surgery; cited from earlier work
[7] = tested on: ARL13B knocked out GBM lines; test: DNA damage by H2X foci in ARL13B knockout/knockdown GBM cells treated with TMZ; assay type: cell-based; conditions: ARL13B knockout/knockdown cells vs control cells, both exposed to TMZ
Procedure: as §2
Creation of this alkylated purine causes a base pair mismatch in DNA (G-T) which results in DNA damage and cell cycle arrest and apoptosis (PMID: 15322239). Because of the nature of temozolomide chemotherapy-induced DNA damage, we chose to examine whether or not salvage pathway synthesis carried an implicit sensitivity to this alkylating chemotherapy. […] However, it did decrease the utilization of the salvage pathway by roughly 50%. Next, we subjected our ARL13B knockout cells to a standard dose of Temozolomide chemotherapy and checked whether they had more DNA double-stranded breaks by utilizing gamma h2ax foci counting. […]
2.6. […] After tumor engraftment animals were treated with vehicle control or TMZ (2.5 mg/kg) for 5 consecutive days and animals were monitored by endpoint survival. […]

[8] = tested on: IMPDH; conditions: cited from earlier work
[9] = tested on: GBM flank model; test: GBM flank model, tumor growth, EZH2 inhibitor plus TMZ; assay type: in vivo
From the text: FIG. 1A-1D. ARL13B is a downstream target for EZH2 non-canonical function. A) EZH2 expression is elevated during (day 3-D3) and post (D18) TMZ therapy. Therapy resistant glioma stem cell (CD133+) express high EZH2 post therapy (left). […] C) To examine the role of non-canonical function in TMZ resistance GBM43 (proneural) and GBM6 (Classical) PDX GBM treated with TMZ or TMZ+EZH2 inhibitor and subject to RNAseq analysis. […] We identified ARL13B as the top hit from this screen. D) shRNA mediated knockdown of EZH2 leads to downregulation of ARL13B.
2.1. […] One such epigenetic regulator is the Polycomb Repressor Complex 2 (PRC2), a critical family protein that is essential for maintaining the self-renewal ability of adult and embryonic stem cells^22, 23. This complex is involved in transcription silencing via chromatin compaction by catalyzing the methylation of the histone H3 at lysine 27. The catalytic subunit of the PRC2 complex, Enhancer Of Zeste 2 (EZH2), has been linked to aggressive progression of multiple cancers, including GBMs^24 25. The function of EZH2 is closely related to the cancer stem cell (CSC) phenotype, mesenchymal transition and radioresistance, which is associated with post-surgery relapse of GBM^24-26. However, its role in promoting chemoresistance properties in GBM is yet to be investigated. […]

[10] = Blood-brain barrier crossing of the EZH2 inhibitor, orthotopic PDX model; assay type: in vivo
From the text: 2.1. […] One such epigenetic regulator is the Polycomb Repressor Complex 2 (PRC2), a critical family protein that is essential for maintaining the self-renewal ability of adult and embryonic stem cells^22, 23. This complex is involved in transcription silencing via chromatin compaction by catalyzing the methylation of the histone H3 at lysine 27. The catalytic subunit of the PRC2 complex, Enhancer Of Zeste 2 (EZH2), has been linked to aggressive progression of multiple cancers, including GBMs^24 25. The function of EZH2 is closely related to the cancer stem cell (CSC) phenotype, mesenchymal transition and radioresistance, which is associated with post-surgery relapse of GBM^24-26. However, its role in promoting chemoresistance properties in GBM is yet to be investigated. To this end, we have examined the role of the EZH2-PRC2 complex in promoting TMZ resistance.

[11] = tested on: orthotopic GBM43; test: Orthotopic PDX GBM mouse model, endpoint survival, IMPDH inhibitor with TMZ; assay type: in vivo, Mice; conditions: for survival benefits in vivo and vitro models: mouse
Procedure: (§4) FIG. 10A-10C. […] A) Pictorial representation of cell viability post therapy. B) Cell viability measured by trypan blue exclusion method. C) Mice with orthotopic GBM43 treated with vehicle DMSO, TMZ 2.5 mg/kg for 5 days, MMF (20 mg/kg for 4 days and in combination and monitored by endpoint survival.
as §3

[12] = in vivo; cited from earlier work
[13] = tested on: EAE and stroke; conditions: cited from earlier work
[14] = tested on: PDX GBM lines; test: Cell viability of PDX GBM lines post therapy, trypan blue exclusion; assay type: cell-based; conditions: CellCept combined with TMZ
Procedure: as §4

## Cn1nnc2c(C(N)=O)ncn2c1=O [TMZ, 3,4-dihydro-3methyl-4-oxoimidazo[5,1-d]-1,2,3,5-tetrazine-8-carboxamide]
[1]; ARL13B knockdown / removal
  decrease of de novo pathway usage in a TMZ specific manner: about 50%
[1]; ARL13B knocked-out cells
  de novo pathway activity in a TMZ-specific manner: inhibited in a TMZ-specific manner; also recorded: reduced significantly in a TMZ-specific manner
[1]
  de novo pathway activity during TMZ therapy: remained unchanged; also recorded: did not alter the de novo synthesis pathway
[1]; listed as temozolomide
  de novo pathway activity during TMZ therapy: did not statistically change
[2]; classical subtype GBM6, ARL13B KD
  improvement in overall survival compared to control: 39%
[2]; mesenchymal subtype, ARL13B KO GBM
  animals that did not develop any tumor: 80%
[3]
  decrease of salvage pathway activity during TMZ therapy: roughly 50%
[4]
  peak cerebral spinal fluid and serum concentrations: 50 µM
[5]
  IMPDH2 enzymatic activity: decrease in activity
[6]
  improvement of overall survival time: 4-6 months
[7]
  DNA damage / double-strand breaks (H2X foci): robust increase in DNA double-strand breaks; also recorded: significantly elevated DNA damage
[7]; listed as Temozolomide
  DNA damage / double-strand breaks (H2X foci): significantly more foci

## CC[C@H](CC#N)OC(=O)N[C@@H](C)c1cccc(NC(=O)Nc2ccc(-c3cnco3)c(OC)c2)c1 [AVN944]
[8]
  IMPDH activity as compared to CellCept: enhanced IMPDH activity as compared to CellCept

## CCCc1cc(C)[nH]c(=O)c1CNC(=O)c1cc(-c2ccc(N3CCN(C(C)C)CC3)nc2)cc2c1cnn2C(C)C [EZH2 inhibitor]
[9]
  tumor growth / therapeutic efficacy of TMZ in flank model: can block the tumor growth; also recorded: significantly enhanced the therapeutic efficacy of TMZ
[10]
  crossing of the blood-brain barrier: failed to cross the blood-brain barrier

## COc1c(C)c2c(c(O)c1C/C=C(\C)CCC(=O)OCCN1CCOCC1)C(=O)OC2 [CellCept, mycophenolic mofetil]
[11]; CellCept combined with TMZ, PDX model (FIG. 10)
  therapeutic efficacy of TMZ-based chemotherapy, animal model: corporation between CellCept and TMZ; also recorded: significantly improved the therapeutic efficacy of TMZ-based anti-GBM chemotherapy
[11]
  survival benefits in vivo and vitro models: robust survival benefits
[11]; orthotopic PDX mouse model, only when in combination with TMZ (p<0.01)
  median survival: significantly extended median survival
[12]
  crossing of the blood-brain barrier (BBB): ability to cross the blood-brain barrier
[13]
  neuroprotection against inflammatory conditions: promoted neuroprotection
[14]
  sensitization to TMZ therapy in vitro: sensitizes PDX GBM lines to TMZ therapy; also recorded: significantly improved the therapeutic efficacy of TMZ-based anti-GBM chemotherapy

## NC(=O)c1ncn([C@@H]2O[C@H](CO)[C@@H](O)[C@H]2O)c1O [Mizoribine, mizoribine]
[11]
  survival benefits in vivo and vitro models: robust survival benefits
